According to US12257227B2, “Combination solution for treating chemotherapy refractory cancer” (1GLOBE BIOMEDICAL CO., LTD., priority 2018, dated 2025):

Key:
p-STAT3 and β-catenin = experiment: Immunofluorescence of cancer stem cell markers in xenograft tumors; assay type: in vivo, mice; conditions: FIG. 5; tumors collected 24 hours after first dose; e.g. 50 mg/kg BID oral gavage
Protocol: Detection of the effects of 2-acetylnaphtho[2,3-b]furan-4,9-dione with or without paclitaxel on cancer stem cells for cancer stem cell markers in cancer xenograft animal models.
Human cancer cells were implanted subcutaneously into the right abdomen of 5 to 7 weeks athymic nude mice. When the tumor size reaches 200 mm^3, administer 2-acetylnaphtho[2,3-b]furan-4,9-dione (for example, 50 mg/kg (BID) by oral gavage (n=3/group)), paclitaxel, or 2-acetylnaphtho[2,3-b]furan-4,9-dione combined with paclitaxel to treat animals. Tumors were collected 24 hours after the first dose.
The harvested tissues were fixed in 3.7% neutral buffered formaldehyde at 4° C. overnight. Paraffin embedding were performed. Cut those into approximately 5 microns and fix them on positively charged glass slides. After baking and deparaffinization, the slides with tumor or control tissue were incubated in 10 mM sodium citrate (pH 6.0) for 10 minutes. After antigen retrieval, use primary antibody P-STAT3 (Rabbit, Cell Signaling, 1:100), β-catenin (Mouse, Santa Cruz, 1:400) to label slides overnight at 4° C., and then use Alexa Fluor Fluorescent dye-conjugated secondary antibody (1:500, Invitrogen). After mounting, the glass slides containing DAPI (Invitrogen) with Prolong mounting medium were detected under the 20× objective lens of a Zeiss fluorescence microscope, and analyzed with Zen software.

STAT3 pathway = conditions: according to WO2009/036059; read-out: STAT3 pathway activity, cellular IC50; cited from earlier work
[1] = system: advanced pancreatic cancer; experiment: Phase II/III open label clinical study in patients who failed previous treatments (RECIST 1.1); assay type: in vivo, human; conditions: all patients receiving treatment
Excerpt: In a phase II/III extended open label international multicenter experiment, search the effect of the compound of formula (I), 2-acetylnaphtho[2,3-b]furan-4,9-dioen combined with paclitaxel and a low dose of gemcitabine on patients with advanced pancreatic cancer who have failed previous treatments.
In the clinical study, we observed the anti-tumor activity and safety of 2-acetylnaphtho[2,3-b]furan-4,9-dione combined with paclitaxel weekly and a low dose of gemcitabine in patients with advanced pancreatic cancer who failed previous treatment. There are imaging disease progressions in patients who have received at least first-line systemic treatment in the past and failed. Previous treatments include gemcitabine-based single-agent or combination chemotherapy, and/or FOLFIRINOX/mFOLFIRINOX chemotherapy. […]
The remission and progression of the tumor were evaluated according to the RECIST 1.1 standard. […]

[2] = system: human pancreatic adenocarcinoma (Panc-1); experiment: Xenograft tumor mouse model, tumor size during treatment; assay type: in vivo, mice; conditions: FIG. 4; 2-acetylnaphtho[2,3-b]furan-4,9-dione 100 mg/kg PO bid; gemcitabine 80 mg/kg IV q3d; mean of five tumors
Protocol: The effects of 2-acetylnaphtho[2,3-b]furan-4,9-dione, the compound of formula (I), gemcitabine, and a combination of 2-acetylnaphtho[2,3-b]furan-4,9-dione and gemcitabine were studied. Specifically, immunosuppressed mice with established human pancreatic adenocarcinoma (Panc-1) were treated with vehicle control, 2-acetylnaphtho[2,3-b]furan-4,9-dione (100 mg/kg, PO, bid), gemcitabine (Gemzar, 80 mg/kg, IV, q3d), or the combination of 2-acetylnaphtho[2,3-b]furan-4,9-dione and gemcitabine. Tumor size was evaluated periodically during treatment. Each point represents the mean±SEM of five tumors.

| Compound | expression (staining) of stem cell markers p-STAT3 and β-catenin (p-STAT3 and β-catenin) | IC50 (STAT3 pathway) | adverse events related to the compound [1] | tumor growth (tumor volume) [2] |
| --- | --- | --- | --- | --- |
| CC(=O)O[C@H]1C(=O)[C@@]2(C)[C@H]([C@H](OC(=O)c3ccccc3)[C@]3(O)C[C@H](OC(=O)[C@H](O)[C@@H](NC(=O)c4ccccc4)c4ccccc4)C(C)=C1C3(C)C)[C@]1(OC(C)=O)CO[C@@H]1C[C@@H]2O [paclitaxel, reference compound] | increased staining of stem cell markers | – | – | – |
| CC(=O)c1cc2c(o1)C(=O)c1ccccc1C2=O [2-acetylnaphtho[2,3-b]furan-4,9-dione] | significantly reduce the expression of stem cell markers p-STAT3 and β-catenin | ~250 nM | mainly gastrointestinal adverse events | showed certain effects in inhibiting tumor growth |
| Nc1ccn([C@@H]2O[C@H](CO)[C@@H](O)C2(F)F)c(=O)n1 [gemcitabine, reference compound] | – | – | – | showed certain effects in inhibiting tumor growth |
